In patent US7858738B2, “Synthetic human peptides and pharmaceutical compositions comprising them for the treatment of systemic lupus erythematosus” (Yeda Research and Development Co., Ltd., priority 2001, dated 2010):

Columns and labels:
BALB/c-derived LNC = experiment: In vivo inhibition of proliferation of BALB/c LNC to the human 16/6Id mAb; set-up: species or system mice
Method: Because our aim was to test the inhibitory capacity of the peptides based on the CDR of the human 16/6Id autoantibody, it was of importance to find out whether peptides hCDR1 and hCDR3 are capable of inhibiting the priming to the whole molecule of the human 16/6Id mAb. To this end, BALB/c and SJL mice were primed with the human 16/6Id mAb (2 μg/mouse) in CFA intradermally in the hind footpads. […] Ten days following immunization, the mice were sacrificed and their LNCs were tested in vitro for their ability to proliferate to different concentrations (0.1-10 μg/well) of the human anti-DNA 16/6Id mAb.
The results are presented as maximum % inhibition of the proliferation to the immunizing human 16/6Id mAb of lymph node cells of mice immunized and treated with the peptides hCDR1 and hCDR3 as compared with mice that were immunized with the 16/6Id mAb but were not treated with the peptides.
In another experiment, BALB/c mice were immunized with 1 μg human 16/6Id in CFA, intradermally in the hind footpads, and either were injected with hCDR1 s.c., 300 μg/mouse in PBS, or were not further treated. Ten days later the mice were sacrificed and their LNC were tested for their ability to proliferate in vitro to the human 16/6Id. Thus, popliteal LNCs (0.5×10^6) were incubated in the presence of various concentrations (0.1-10 μg/well) of the human anti-DNA 16/6Id mAb. At the end of 4 days incubation, ^3H-thymidine was added to the cultures for the last 18 hours of incubation. Cells were then harvested and radioactivity counted.

(NZB×NZW)F1 mice = experiment: Treatment of established SLE-like disease in (NZB×NZW)F1 mice; assay type: in vivo; settings: for anti-dsDNA autoantibody O.D. values: sera 1:1250, end of treatment, PBS-treated 0.586±0.1
Method: Induction and treatment of experimental SLE. In order to induce experimental SLE, BALB/c mice were immunized with 1-2 μg of the human mAb 16/6Id and boosted 3 weeks later. For the prevention of experimental SLE, mice were given hCDR1 or hCDR3 (mCDR1 or revmCDR1 as control peptide in Example 12) intravenously (i.v.) or s.c. concomitant with the immunization, and were injected weekly thereafter for 5 weeks. Treatment of an established disease started three and a half months following disease induction with the 16/6Id, when clinical manifestations were already observed. In Example 12, mice received 10 weekly injections (i.v. or s.c.) of mCDR1 or revmCDR1 at a dose of 100 μg/mouse. Prevention and treatment of SLE-like disease in (NZB×NZW)F1 mice with the hCDR1 or mCDR1 peptide. For prevention of SLE, mice at the age of 2 months, before disease manifestations are observed, were injected s.c. with hCDR1 (or mCDR1 in Example 12, 250 μg/mouse) once a week for 10 weeks. To treat an established disease, mice at the age of 5-7 months were injected with hCDR1 (in Example 12, mCDR1 s.c., 250 μg/mouse) once a week for 10 weeks. Proliferative Responses. PBL were isolated from heparinized venous blood by Ficoll-Hypaque (Pharmacia) density-gradient centrifugation. All assays were performed, in triplicate, in flat-bottomed microtiter plates (Falcon, Becton Dickinson, Oxmard, Calif., USA) in which 2×10^5 PBL were cultured in enriched RPMI-1640 as described (Dayan et al., 2000). The PBL were exposed to various concentrations (0.1-40 μg/well) of the human anti-DNA 16/6Id mAb with and without the addition of the various CDR-based peptides at a concentration of at least 10-fold excess over that of the 16/6Id. Phytohemagglutinin (PHA; 2 μg/well) was used as a control for culture conditions at each experiment. The cultures were incubated in 7.5% CO2 at 37° C. for 6 days. Eighteen hours before the cells were harvested, [^3H]-thymidine (0.5μ Ci of 5 Ci/mmol) (Nuclear Research Center, Negev, Israel) was added to all cultures. Results are expressed as the mean thymidine incorporation in counts per minute (CPM) of triplicate culture±SD, or as stimulation index (S.I.; the ratio of mean CPM at the optimal concentration of the human 16/6Id to the mean CPM in the presence of medium alone). A S.I.≧2 was considered a positive response (Dayan et al., 2000). Inhibition (the ratio of mean CPM in the presence of the 16/6Id and various CDR-based peptides to the mean CPM with the 16/6Id without the CDR-based peptide) above 50% was considered positive. Induction of Cytokine Production. Mice that were immunized with the human 16/6Id mAb and either treated or not with the CDR-based peptide, were killed at different periods during or after treatment with the peptide. Splenocytes and lymph node cells (LNC) were harvested and incubated (5×10^6/ml) in the presence of the 16/6Id. Supernatants were collected after 48 and 72 h. Assessment of Cytokines in the Supernatants. Supernatants were collected 48 hours following the initiation of the cultures and stored at −70° C. Measurements of IL-2, IL-10, IFN-γ, and TNF-α were performed by ELISA by using the relevant standards, capture and detecting Abs (Pharmingen) according to the manufacturer's instructions. TGF-β was determined by an ELISA. Briefly, plates were coated with the recombinant human TGF-β1 sRIII/Fc chimera (R & D Systems Inc., Minneapolis, Minn., USA), and the second Ab used was the biotinylated anti-human TGF-β1 antibody (R & D Systems Inc.). The substrate solution used was TMB color Reagent (Helix Diagnostics, West Sacramento, Calif.), and enzyme activity was evaluated by using 570- and 630-nm filters. Detection of SLE-Associated Clinical and Pathological Manifestations. Proteinuria was measured semiquantitatively by using Combistix kit (Ames Division, Bayer Diagnostics, Newbury, U.K.). White blood cells (WBC, for leukopenia) were counted after a 10-fold dilution of heparinized blood in distilled water containing 1% acetic acid (vol/vol). […]

[1] = age 7 months, 10 weeks, 100 μg/mouse or 300 μg/mouse

## GYYWSWIRQPPGKGEEWIG (Human) [hCDR1, 19-mer peptide based on the CDR1 of the heavy chain of the human 16/6Id mAb]
BALB/c-derived LNC; 50 μg/mouse s.c. in PBS, 16/6Id mAb 0.1 μg/well
  % inhibition of proliferation: 98%
BALB/c-derived LNC; 50 μg/mouse s.c. in PBS, 16/6Id mAb 5 μg/well
  % inhibition of proliferation: 73%
BALB/c-derived LNC; 50 μg/mouse s.c. in PBS, 16/6Id mAb 10 μg/well
  % inhibition of proliferation: 64%
BALB/c-derived LNC; 300 μg/mouse s.c. in PBS, 16/6Id mAb 0.1 μg/well
  % inhibition of proliferation: 47%
BALB/c-derived LNC; 300 μg/mouse s.c. in PBS, 16/6Id mAb 1 μg/well
  % inhibition of proliferation: 66%
BALB/c-derived LNC; 300 μg/mouse s.c. in PBS, 16/6Id mAb 5 μg/well
  % inhibition of proliferation: 76%
BALB/c-derived LNC; 300 μg/mouse s.c. in PBS, 16/6Id mAb 10 μg/well
  % inhibition of proliferation: 62%
BALB/c-derived LNC; maximum % inhibition, 200 μg/mouse s.c. in PBS concomitant with priming
  % Inhibition of the proliferation of BALB/c-derived LNC to the human 16/6Id mAb: 88%
(NZB×NZW)F1 mice; 50 μg/mouse s.c. weekly for 10 weeks from age 5 and a half months
  anti-dsDNA autoantibody O.D. values: 0.27±0.1 O.D.
(NZB×NZW)F1 mice; 100 μg dose, mice sacrificed at 9 months, FIGS. 11A-11D
  number and intensity of immune complexes in kidney sections: reduced the number of immune complexes as well as their intensity
(NZB×NZW)F1 mice; 100 μg/mouse s.c. weekly for 10 weeks from age 5 and a half months
  anti-dsDNA autoantibody O.D. values: 0.37±0.1 O.D.
(NZB×NZW)F1 mice; 200 μg/mouse s.c. weekly for 10 weeks from age 5 and a half months
  anti-dsDNA autoantibody O.D. values: 0.29±0.1 O.D.
(NZB×NZW)F1 mice; 300 μg/mouse s.c. weekly for 10 weeks at the age of 7 months, untreated 4.80 ± 2.56
  Proteinuria g/L ± SEM: 1.08 ± 0.38 g/L
(NZB×NZW)F1 mice; 300 μg/mouse, age 7 months, following treatment No 5, untreated 2.65 ± 1.76
  Proteinuria g/L ± SEM: 0.61 ± 0.23 g/L
(NZB×NZW)F1 mice; 300 μg/mouse, age 7 months, following treatment No 7, untreated 3.89 ± 2.73
  Proteinuria g/L ± SEM: 0.65 ± 0.32 g/L
(NZB×NZW)F1 mice; 300 μg/mouse, age 7 months, following treatment No 9, untreated 7.55 ± 3.95
  Proteinuria g/L ± SEM: 1.02 ± 0.39 g/L
(NZB×NZW)F1 mice; 300 μg/mouse, age 7 months, intensity 0=no ICD to 3=severe and extremely intense ICD, untreated 2.57 ± 0.29, p = 0.035
  Immune Complex Deposits ± SEM: 1.44 ± 0.41
(NZB×NZW)F1 mice; 400 μg/mouse at the age of 6 months, untreated 4.99 ± 2.53
  Proteinuria g/L ± SEM: 0.77 ± 0.32 g/L
(NZB×NZW)F1 mice; 400 μg/mouse, age 6 months, intensity score 0-3, untreated 2 ± 0.29, p = 0.05
  Immune Complex Deposits ± SEM: 1.42 ± 0.19
(NZB×NZW)F1 mice; 7-month old mice, 300 μg s.c. weekly for 10 weeks
  anti-DNA antibody titers in sera: mild reduction
(NZB×NZW)F1 mice; 50, 100 and 200 μg/mouse s.c. weekly for 10 weeks from age 5 and a half months
  anti-dsDNA autoantibody titers: moderate reduction
(NZB×NZW)F1 mice; [1]
  anti-DNA autoantibody titers: moderate reduction
  proteinuria in comparison to the PBS-treated group: reduction
(NZB×NZW)F1 mice; age 7 months, 10 weeks, 100 or 300 μg/mouse, more significant effect with 300 μg
  kidney disease: ameliorated
(NZB×NZW)F1 mice; ten-week treatment, 50 μg dose less efficient than 100 and 200 μg
  kidney disease: reduced significantly
